The values below come from ChEMBL document CHEMBL1140757, “Studies toward the structural optimization of new brazilizone-related trypanocidal 1,3,4-thiadiazole-2-arylhydrazone derivatives” (Bioorg Med Chem, 2008).

A word on the pIC50: it is the IC50 on a negative log10 scale, so that one unit is a factor of ten.

pIC50: −log10 of the molar value.

The subject of this test is Trypanosoma cruzi. Nature of the test: Trypanocidal activity against Trypanosoma cruzi Y trypomastigotes assessed as parasite lysis. It is filed as functional, organism-based.
As to `Cn1c([N+](=O)[O-])cnc1-c1nnc(N/N=C/c2cccc(Cl)c2)s1`, the pIC50 was 3.73.

For the compound `Cn1c([N+](=O)[O-])cnc1-c1nnc(N/N=C/c2cccc([N+](=O)[O-])c2)s1`, the pIC50 was 4.32.

Turning to `Cn1c([N+](=O)[O-])cnc1-c1nnc(N/N=C/c2cc(O)ccc2O)s1`, the pIC50 is 3.85.

For the compound `Cn1c([N+](=O)[O-])cnc1-c1nnc(N/N=C/c2ccccc2[N+](=O)[O-])s1`, the pIC50 was 3.14.

Take `Cn1c([N+](=O)[O-])cnc1-c1nnc(N/N=C/c2ccccc2Br)s1`: the pIC50 was 3.05.

As for `Cn1c([N+](=O)[O-])cnc1-c1nnc(N/N=C/c2cccc(Br)c2)s1`, the pIC50 is 3.14.

For the compound `Cn1c([N+](=O)[O-])cnc1-c1nnc(N/N=C/c2cccc(Cl)c2Cl)s1`, the pIC50 is 2.92.

As for `COc1cc(/C=N/Nc2nnc(-c3ncc([N+](=O)[O-])n3C)s2)cc([N+](=O)[O-])c1O`, the pIC50 is 4.72.

As to `Cn1c([N+](=O)[O-])cnc1-c1nnc(N/N=C/c2ccccc2Cl)s1`, the pIC50 was 3.85.

`Cn1c([N+](=O)[O-])cnc1-c1nnc(N/N=C/c2cccc(O)c2)s1`: the pIC50 was 4.13.

As to `Cn1c([N+](=O)[O-])cnc1-c1nnc(N/N=C/c2cccc(O)c2O)s1`, the pIC50 was 3.51.

For the compound `Cn1c([N+](=O)[O-])cnc1-c1nnc(N/N=C/c2ccc(Cl)cc2Cl)s1`, the pIC50 was 3.10.
